The values that follow come from patent US9227923B2, “Pesticidal carboxamides” (Bayer Intellectual Property GmbH, priority 2009, dated 2016).

Molecules are shown by their SMILES.

The assay concerns Tobacco Cutworm (Spodoptera litura) Larvae. The assay is described as follows: Test against tobacco cutworm (Spodoptera litura) larvae, leaf dip. To be noted: active compound concentration of 100 ppm, third instar larvae, after 7 days. Type of assay: in vivo. The procedure:
Solvent: 3 parts by weight of dimethylformamide
Emulsifier: 1 part by weight of polyoxyethylene alkyl phenyl ether
Leaves of sweet potato were immersed in the test solution at the appropriate concentration, and the leaves were dried in air. The leaves were then placed in a petri dish having a diameter of 9 cm, and ten Spodoptera litura at third instar larvae were released therein. The petri dishes were placed in a temperature-controlled chamber at 25° C. After 2 days and 4 days more sweet potato leaves were added. After 7 days, the number of dead larvae was counted to calculate the insecticidal activity. An insecticidal activity of 100% means that all larvae were killed, whereas an insecticidal activity of 0% means that no larva was killed.

`CCc1cc(C(F)(C(F)(F)F)C(F)(F)Br)cc(C)c1NC(=O)c1ccc(CNC(=O)C2CC2)c(Cl)c1` (racemic) [Compound 5-318] yielded an insecticidal activity of 100%.
With `CCC(=O)NCc1ccc(C(=O)Nc2c(C)cc(C(F)(C(F)(F)F)C(F)(F)F)cc2C)cc1` [Compound 5-3], the insecticidal activity was 100%.
Turning to `Cc1cc(C(F)(C(F)(F)F)C(F)(F)F)cc(C)c1NC(=O)c1ccc(CNC(=O)CC(F)(F)F)cc1` [Compound 5-7], the insecticidal activity is reported as 100%.
The same measure, in the same setting: the value for `Cc1cc(C(F)(C(F)(F)F)C(F)(F)F)cc(C)c1NC(=O)c1ccc(CNC(=O)c2cccnc2F)cc1` [Compound 5-19] was 100%; that for `Cc1cc(C(F)(C(F)(F)F)C(F)(F)F)cc(C)c1NC(=O)c1ccc(CNC(=O)CC2CC2)cc1F` [Compound 5-24] was 100%.
Turning to `CCc1cc(C(F)(C(F)(F)F)C(F)(F)F)cc(C)c1NC(=O)c1ccc(CNC(=O)CC2CC2)cc1` [Compound 5-31], the insecticidal activity is reported as 100%.
Same read-out and setting: the value for `CCc1cc(C(F)(C(F)(F)F)C(F)(F)F)cc(C)c1NC(=O)c1ccc(CNC(=O)c2ccccc2Cl)cc1` [Compound 5-37] was 100%; that for `CCc1cc(C(F)(C(F)(F)F)C(F)(F)F)cc(C)c1NC(=O)c1ccc(CNC(=O)c2cccc(Cl)c2)cc1` [Compound 5-38] was 100%; that for `CCc1cc(C(F)(C(F)(F)F)C(F)(F)F)cc(C)c1NC(=O)c1ccc(CNC(=O)c2ccc(Cl)cc2)cc1` [Compound 5-39] was 100%.
Still for that read-out and setting: the same measure for `CCC(=O)NCc1ccc(C(=O)Nc2c(C)cc(C(F)(C(F)(F)F)C(F)(F)F)cc2CC)c(F)c1F` [Compound 5-52]: 100%; for `CCc1cc(C(F)(C(F)(F)F)C(F)(F)F)cc(C)c1NC(=O)c1ccc(CNC(=O)C2CC2)c(F)c1F` [Compound 5-53]: 100%; for `CCc1cc(C(F)(C(F)(F)F)C(F)(F)F)cc(C)c1NC(=O)c1ccc(CNC(=O)CC2CC2)c(F)c1F` [Compound 5-54]: 100%.
Same read-out and setting: the same measure for `CCc1cc(C(F)(C(F)(F)F)C(F)(F)F)cc(C)c1NC(=O)c1ccc(CNC(=O)CC(F)(F)F)c(F)c1F` [Compound 5-55]: 100%; for `CCC(=O)NCc1ccc(C(=O)Nc2c(C)cc(C(F)(C(F)(F)F)C(F)(F)F)cc2CC)c(Cl)c1` [Compound 5-66]: 100%.
Consider `CCc1cc(C(F)(C(F)(F)F)C(F)(F)F)cc(C)c1NC(=O)c1ccc(CNC(=O)CC2CC2)cc1Cl` [Compound 5-67], for which the insecticidal activity came to 100%.
As to `CCc1cc(C(F)(C(F)(F)F)C(F)(F)F)cc(C)c1NC(=O)c1ccc(CNC(=O)CC(F)(F)F)cc1Cl` [Compound 5-68], the insecticidal activity worked out at 100%.
Molecule `CCc1cc(C(F)(C(F)(F)F)C(F)(F)F)cc(C)c1NC(=O)c1ccc(CN)c(Cl)c1` [Compound 5-76] came in with an insecticidal activity of 100%.
Still for that read-out and setting: the value for `CCc1cc(C(F)(C(F)(F)F)C(F)(F)F)cc(C)c1NC(=O)c1ccc(CN)c(Br)c1` [Compound 5-83] was 100%; that for `CCc1cc(C(F)(C(F)(F)F)C(F)(F)F)cc(C)c1NC(=O)c1ccc(CNC(C)=O)c(C)c1` [Compound 5-99] was 100%.
On the same count and under the same terms, the same measure for `CCc1cc(C(F)(C(F)(F)F)C(F)(F)F)cc(C)c1NC(=O)c1ccc(CNC(=O)CC2CC2)c(C)c1` [Compound 5-101]: 100%.
Same read-out and setting: the same measure for `CCc1cc(C(F)(C(F)(F)F)C(F)(F)F)cc(C)c1NC(=O)c1ccc(CNC(C)=O)c(C(F)(F)F)c1` [Compound 5-106]: 100%; for `CCC(=O)NCc1ccc(C(=O)Nc2c(C)cc(C(F)(C(F)(F)F)C(F)(F)F)cc2CC)cc1C(F)(F)F` [Compound 5-107]: 100%.
`CCc1cc(C(F)(C(F)(F)F)C(F)(F)F)cc(C)c1NC(=O)c1ccc(CNC(=O)C2CC2)c(C(F)(F)F)c1` [Compound 5-108] had an insecticidal activity of 100%.
On the same count and under the same terms, the same measure for `CCC(=O)NCc1ccc(C(=O)Nc2c(C)cc(C(F)(C(F)(F)F)C(F)(F)F)cc2CC)cc1[N+](=O)[O-]` [Compound 5-115]: 100%; for `CCc1cc(C(F)(C(F)(F)F)C(F)(F)F)cc(C)c1NC(=O)c1ccc(CNC(=O)C2CC2)c([N+](=O)[O-])c1` [Compound 5-116]: 100%.
Still for that read-out and setting: the value for `CCc1cc(C(F)(C(F)(F)F)C(F)(F)F)cc(C)c1NC(=O)c1ccc(CNC(=O)CC2CC2)c([N+](=O)[O-])c1` [Compound 5-117] was 100%; that for `CCc1cc(C(F)(C(F)(F)F)C(F)(F)C(F)(F)F)cc(C)c1NC(=O)c1ccc(CN)c(Cl)c1` (centres unmarked) [Compound 5-149] was 100%.
`CCC(=O)NCc1ccc(C(=O)Nc2c(C)cc(C(F)(C(F)(F)F)C(F)(F)C(F)(F)F)cc2CC)cc1Br` (centres unmarked) [Compound 5-158] gave an insecticidal activity of 100%.
Still for that read-out and setting: the same measure for `CCc1cc(C(F)(C(F)(F)F)C(F)(F)C(F)(F)F)cc(C)c1NC(=O)c1ccc(CNC(=O)CC2CC2)c(Br)c1` (centres unmarked) [Compound 5-160]: 100%; for `Cc1cc(C(F)(C(F)(F)F)C(F)(F)F)cc(C)c1NC(=O)c1ccc(CNC(=O)c2cccnc2Cl)cc1F` [Compound 5-182]: 100%.
`CCc1cc(C(F)(C(F)(F)F)C(F)(F)F)cc(C)c1NC(=O)c1ccc(CN(C)C(=O)c2cccnc2Cl)cc1` [Compound 5-189] showed an insecticidal activity of 100%.
As for `CCc1cc(C(F)(C(F)(F)F)C(F)(F)F)cc(C)c1NC(=O)c1ccc(CNC(C)=O)c(I)c1` [Compound 5-190], the insecticidal activity turned out to be 100%.
On the same count and under the same terms, the value for `CCC(=O)NCc1ccc(C(=O)Nc2c(C)cc(C(F)(C(F)(F)F)C(F)(F)F)cc2CC)cc1I` [Compound 5-191] was 100%; that for `CCC(=O)NCc1ccc(C(=O)Nc2c(C)cc(C(F)(C(F)(F)F)C(F)(F)C(F)(F)F)cc2CC)cc1I` (centres unmarked) [Compound 5-195] was 100%; that for `CCc1cc(C(F)(C(F)(F)F)C(F)(F)C(F)(F)F)cc(C)c1NC(=O)c1ccc(CNC(=O)C2CC2)c(I)c1` (centres unmarked) [Compound 5-196] was 100%.
As to `CCc1cc(C(F)(C(F)(F)F)C(F)(F)C(F)(F)F)cc(C)c1NC(=O)c1ccc(CNC(=O)CC2CC2)c(I)c1` (centres unmarked) [Compound 5-197], the insecticidal activity was determined as 100%.
As for `CCC(=O)NCc1ccc(C(=O)Nc2c(Cl)cc(C(F)(C(F)(F)F)C(F)(F)F)cc2Cl)cc1Cl` [Compound 5-230, 3-chloro-N-[2,6-dichloro-4-(1,1,1,2,3,3,3-heptafluoropropan-2-yl)phenyl]-4-[(propionylamino)methyl]benzamide], the pest or weed control at 100 ppm (Spodoptera litura, foliar, 168 h, read-out: insecticidal activity) worked out at 100%.
Turning to `O=C(CC(F)(F)F)NCc1ccc(C(=O)Nc2c(Cl)cc(C(F)(C(F)(F)F)C(F)(F)F)cc2Cl)cc1Cl` [Compound 5-232], the insecticidal activity amounted to 100%.
`Cc1cc(C(F)(C(F)(F)F)C(F)(F)F)cc(OC(F)F)c1NC(=O)c1ccc(CN)c(Cl)c1` [Compound 5-293] gave an insecticidal activity of 100%.
The same measure, in the same setting: the value for `CC(=O)NCc1ccc(C(=O)Nc2c(Cl)cc(C(F)(C(F)(F)F)C(F)(F)C(F)(F)F)cc2Cl)cc1` (centres unmarked) [Compound 5-322] was 100%.
Same read-out and setting: the value for `O=C(CC1CC1)NCc1ccc(C(=O)Nc2c(Cl)cc(C(F)(C(F)(F)F)C(F)(F)C(F)(F)F)cc2Cl)cc1` (centres unmarked) [Compound 5-325] was 100%; that for `CC(C)(C)OC(=O)NCc1ccc(C(=O)Nc2c(Cl)cc(C(F)(C(F)(F)F)C(F)(F)C(F)(F)F)cc2Cl)cc1Cl` (centres unmarked) [Compound 5-329] was 100%; that for `O=C(CC1CC1)NCc1ccc(C(=O)Nc2c(Cl)cc(C(F)(C(F)(F)F)C(F)(F)C(F)(F)F)cc2Cl)cc1Cl` (centres unmarked) [Compound 5-330] was 100%.
Same read-out and setting: the same measure for `Cc1cc(C(F)(C(F)(F)F)C(F)(F)F)cc(Cl)c1NC(=O)c1ccc(CNC(=O)CC(F)(F)F)cc1` [Compound 5-335]: 100%; for `Cc1cc(C(F)(C(F)(F)F)C(F)(F)F)cc(Cl)c1NC(=O)c1ccc(CNC(=O)CC2CC2)cc1` [Compound 5-336]: 100%; for `CCc1cc(C(F)(C(F)(F)F)C(F)(F)F)cc(C)c1NC(=O)c1ccc(CNC(=O)C(F)(F)F)c(Br)c1` [Compound 5-349]: 100%.
With `CCc1cc(C(F)(C(F)(F)F)C(F)(F)F)cc(C)c1NC(=O)c1ccc(CNC(C)=O)c2ccccc12` [Compound 6-2], the insecticidal activity is reported as 100%.
In turn, `CCC(=O)NCc1ccc(C(=O)Nc2c(C)cc(C(F)(C(F)(F)F)C(F)(F)F)cc2CC)c2ccccc12` [Compound 6-3] came in with an insecticidal activity of 100%.
Molecule `CCc1cc(C(F)(C(F)(F)F)C(F)(F)F)cc(C)c1NC(=O)c1ccc(CNC(=O)C2CC2)c2ccccc12` [Compound 6-4] showed an insecticidal activity of 100%.
`CCc1cc(C(F)(C(F)(F)F)C(F)(F)F)cc(C)c1NC(=O)c1ccc(CNC(=O)CC2CC2)c2ccccc12` [Compound 6-5] came in with an insecticidal activity of 100%.
Molecule `CCc1cc(C(F)(C(F)(F)F)C(F)(F)F)cc(C)c1NC(=O)c1ccc(CNC(=O)CC(F)(F)F)cn1` [Compound 7-6] had an insecticidal activity of 100%.
On to `CCc1cc(C(F)(C(F)(F)F)C(F)(F)F)cc(C)c1NC(=O)c1ccc(CNC(=O)CC(F)(F)F)nc1` [Compound 8-6], for which the insecticidal activity turned out to be 100%.
`CCc1cc(C(F)(C(F)(F)F)C(F)(F)F)cc(C)c1NC(=O)c1ccc(C(C)NC(=O)CC2CC2)cc1` (centres unmarked) [Compound 9-5] showed an insecticidal activity of 100%.
